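Method: 48-hour compound exposure of cells in 96-well plates, five concentrations, linear interpolation of endpoints. The concentration for 50% growth inhibition is given as GI50.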 Active and inactive are the calls of the source. Cut-off read from the data, not from the text of the source: active = GI50 up to about 1.1 µM and inactive = higher.

Some test systems named below: KM-20L2; DMS-114; LXFL 529; XF498; M19-MEL; DLD-1; HOP-18; SNB-78; RXF 631.
Assay in all cases: growth of human tumour cells (NCI), 48 h

On to `Cc1ccc(S(=O)(=O)n2c(-c3ccccc3)c(-c3ccccc3)c3ccccc32)cc1`, for which the GI50 in the experiment on KM-20L2 was > 100 µM (inactive); in the experiment on DMS-114, 20.5 µM (inactive); in the experiment with LXFL 529, > 100 µM (inactive); with XF498, > 100 µM (inactive); with M19-MEL, > 100 µM (inactive); in the experiment with DLD-1 it was > 100 µM (inactive). Moreover, the GI50 in the experiment with HOP-18 is > 100 µM (inactive).

As to `CCOC(=O)C1Sc2ccccc2N=C1C` (stereo unspecified), the GI50 in the experiment with KM-20L2, in the experiment on SNB-78, with DMS-114, in the experiment with LXFL 529, in the experiment with XF498 and in the experiment with M19-MEL was > 100 µM (inactive) in each case. In addition, the GI50 in the experiment on DLD-1 and in the experiment on HOP-18 was > 100 µM (inactive) throughout.

On to `O=C(CCc1n[nH]c(=S)o1)Nc1cc(Cl)c(Cl)cc1Cl`, for which the GI50 in the experiment with KM-20L2 was 45.8 µM (inactive); with SNB-78, > 100 µM (inactive); with DMS-114 it was 41.3 µM (inactive); in the experiment on LXFL 529, 44.8 µM (inactive); in the experiment with RXF 631, 44.6 µM (inactive); with M19-MEL it was > 100 µM (inactive). For the same compound, the results for the GI50 in the experiment on DLD-1 and in the experiment on HOP-18 were 29 µM (inactive) and 58.7 µM (inactive), respectively.

`CC(C)CC(NC(=O)OC(C)(C)C)C(=O)Nc1ccc(Nc2nc(F)nc(-c3c4ccccc4c4n3CCS4)n2)cc1` (stereo unspecified): the GI50 in the experiment with KM-20L2 is 18.3 µM (inactive); with SNB-78, 21.2 µM (inactive); in the experiment with DMS-114, 20.1 µM (inactive); with LXFL 529, 19.5 µM (inactive); in the experiment with XF498 it was 25.2 µM (inactive); with DLD-1, 20 µM (inactive). For the same compound, in the experiment with HOP-18, the GI50 is 24.4 µM (inactive).

Turning to `O=C(COc1ccccc1Cl)N1N=C(c2ccc(Cl)cc2)CC1(O)c1ccccc1` (stereo unspecified), the GI50 in the experiment on KM-20L2, with SNB-78, in the experiment with LXFL 529, in the experiment with RXF 631, with XF498 and in the experiment with M19-MEL was > 100 µM (inactive) in each case. Moreover, in the experiment on DLD-1, the GI50 was > 100 µM (inactive).

Turning to `COc1cc2ccc(=O)oc2cc1O` [SCOPOLETIN], the GI50 in the experiment on KM-20L2 was 187 µM (inactive); in the experiment on SNB-78 it was 307 µM (inactive); in the experiment on DMS-114, 28.5 µM (inactive); in the experiment with XF498, 63.7 µM (inactive); with M19-MEL it was 72.4 µM (inactive); in the experiment with DLD-1 it was 83.2 µM (inactive). The GI50 in the experiment with HOP-18 is 150 µM (inactive).

Take `CC1=C2C(=CO[C@H](C)[C@H]2C)C(O)=C(C(=O)O)C1=O` [CITRININ]: the GI50 in the experiment on KM-20L2 was 23.8 µM (inactive); in the experiment with SNB-78, 11.2 µM (inactive); with DMS-114, 11.5 µM (inactive); in the experiment with XF498, 5.55 µM (inactive); in the experiment with M19-MEL it was 24.5 µM (inactive); with DLD-1, 18.2 µM (inactive). In the experiment on HOP-18, the GI50 was 15.2 µM (inactive).

On to `COC(=O)C12C3C4C5(C(=O)OC)C(C1C35C(=O)N(C(C)C)C(C)C)C42C(=O)N(C(C)C)C(C)C` (stereo unspecified), for which the GI50 is > 50 µM (inactive) in the experiment with KM-20L2; > 50 µM (inactive) in the experiment with SNB-78; > 29.9 µM (inactive) in the experiment on DMS-114; > 50 µM (inactive) with LXFL 529; > 47.8 µM (inactive) with M19-MEL; > 25.6 µM (inactive) with DLD-1. Further, the GI50 with HOP-18 is > 50 µM (inactive).

As to `CCCN(CCC)C(=O)Cc1c2n(c3ccccc13)CCCc1ccccc1-2`, the GI50 was 14.4 µM (inactive) in the experiment on KM-20L2; 12.3 µM (inactive) in the experiment on SNB-78; 11.7 µM (inactive) in the experiment with DMS-114; 13.6 µM (inactive) in the experiment on LXFL 529; 15.1 µM (inactive) with XF498; 14.8 µM (inactive) with M19-MEL. The figures for the GI50 with DLD-1 and in the experiment with HOP-18 were 13.6 µM (inactive) and 16.3 µM (inactive), respectively.

As to `COc1cc(C(C#N)NNc2nc(C)cc(O)n2)cc(OC)c1OC` (stereo unspecified), the GI50 in the experiment on KM-20L2, in the experiment with SNB-78, in the experiment with LXFL 529, in the experiment with M19-MEL, with DLD-1 and with HOP-18 was > 100 µM (inactive) throughout.

For `CCOc1ccc([Se][Se]c2ccc(OCC)cc2)cc1`, the GI50 in the experiment on KM-20L2 was > 100 µM (inactive); in the experiment on SNB-78 it was 32.7 µM (inactive); in the experiment with DMS-114, 20.7 µM (inactive); in the experiment on LXFL 529 it was 26 µM (inactive); in the experiment on RXF 631, 44.5 µM (inactive); in the experiment on M19-MEL it was 25.6 µM (inactive). Further, the GI50 in the experiment on DLD-1 and with HOP-18 was > 100 µM (inactive) each time.

Consider `O=C(Nc1ccc(Cl)cc1)c1cccc([N+](=O)[O-])c1O`, for which the GI50 in the experiment with KM-20L2 was 4.43 µM (inactive); in the experiment on SNB-78, 4.27 µM (inactive); in the experiment with DMS-114, 3.1 µM (inactive); in the experiment with LXFL 529 it was 3.1 µM (inactive); in the experiment with XF498 it was 2.64 µM (inactive); with M19-MEL, 2.8 µM (inactive). Further, the GI50 was 3.18 µM (inactive) in the experiment with DLD-1 and 0.53 µM (active) in the experiment on HOP-18.

`Cc1ccc(NC(=O)C(=O)Cc2nc3ccccc3o2)c(C)c1`: the GI50 in the experiment on KM-20L2, in the experiment with SNB-78, in the experiment with DMS-114, in the experiment on LXFL 529, in the experiment on RXF 631 and in the experiment on XF498 was > 100 µM (inactive) each time. Also, the GI50 in the experiment with M19-MEL and with DLD-1 was > 100 µM (inactive) each time.

On to `O=C(Cc1ccccc1F)NC1=C(Cl)C(=O)c2ccccc2C1=O`, for which the GI50 was 8.43 µM (inactive) with KM-20L2; 0.21 µM (active) in the experiment with DMS-114; 0.405 µM (active) with LXFL 529; 0.706 µM (active) with XF498; 0.461 µM (active) in the experiment on M19-MEL; 0.668 µM (active) with HOP-18.

Consider `COC(=O)C(=O)C(C(=O)OC)C(=O)C(=O)Nc1cc(Cl)c(C)cc1S(=O)(=O)O` (stereo unspecified), for which the GI50 in the experiment on KM-20L2, in the experiment with SNB-78, with DMS-114, with LXFL 529, in the experiment with XF498 and in the experiment on M19-MEL was > 100 µM (inactive) each time. Further, the GI50 with DLD-1 and with HOP-18 was > 100 µM (inactive) in each case.

Consider `COc1cc2c(cc1O)[C@H](C)C(c1ccccc1OC)O2` (stereo partly specified), for which the GI50 is 5.07 µM (inactive) in the experiment on KM-20L2; 5.78 µM (inactive) in the experiment with SNB-78; 2.8 µM (inactive) in the experiment with DMS-114; 8 µM (inactive) with LXFL 529; 5.19 µM (inactive) in the experiment with XF498; 3.77 µM (inactive) with M19-MEL. The GI50 with DLD-1 was 4.75 µM (inactive); in the experiment with HOP-18, > 100 µM (inactive).

On to `COc1ccc2c(c1)CCN1C3=C(CCC3)C(=O)C[C@@H]21`, for which the GI50 with KM-20L2 was > 100 µM (inactive); in the experiment on SNB-78, > 100 µM (inactive); in the experiment with DMS-114, 81.7 µM (inactive); in the experiment on LXFL 529, > 100 µM (inactive); in the experiment with XF498, 15.9 µM (inactive); in the experiment on M19-MEL it was > 100 µM (inactive). For the same compound, the GI50 in the experiment on HOP-18 is > 100 µM (inactive).

Regarding `O=C1CCC2CCc3cccc4oc1c2c34` (stereo unspecified), the GI50 with KM-20L2, with SNB-78, in the experiment with DMS-114, in the experiment with LXFL 529, in the experiment with XF498 and in the experiment on M19-MEL was > 100 µM (inactive) in each case. The GI50 with DLD-1 and with HOP-18 was > 100 µM (inactive) in each case.

With `O=[PH](O)c1ccsc1`, the GI50 with KM-20L2, in the experiment on DMS-114, in the experiment with LXFL 529, in the experiment on RXF 631, in the experiment with M19-MEL and in the experiment with DLD-1 was > 100 µM (inactive) in each case. Further, the GI50 in the experiment with HOP-18 was > 100 µM (inactive).

With `CSc1ncnc2c1CCN2`, the GI50 in the experiment with SNB-78, in the experiment with DMS-114, in the experiment with LXFL 529 and in the experiment with M19-MEL was > 100 µM (inactive) throughout.

As to `O=C1NCCS(=O)(=O)N2CCC[C@@H]12`, the GI50 in the experiment with KM-20L2, in the experiment with SNB-78, with DMS-114, in the experiment with LXFL 529, with RXF 631 and in the experiment with M19-MEL was > 100 µM (inactive) each time. Besides, the GI50 with DLD-1 and in the experiment with HOP-18 was > 100 µM (inactive) each time.

In the case of `COc1ccc(C=C2C(=O)OC(C)(C)OC2=O)cc1OC`, the GI50 with KM-20L2, in the experiment with SNB-78, in the experiment on DMS-114, in the experiment on LXFL 529, in the experiment on XF498 and in the experiment with M19-MEL was > 100 µM (inactive) throughout. Besides, in the experiment with DLD-1, the GI50 is > 100 µM (inactive).

`C=C1C(C(=O)O)C1C(=O)O` (stereo unspecified): the GI50 with KM-20L2, in the experiment on SNB-78, in the experiment with DMS-114, in the experiment with XF498, in the experiment with M19-MEL and in the experiment on DLD-1 was > 100 µM (inactive) throughout. Besides, the GI50 with HOP-18 was > 100 µM (inactive).

As to `CNC(=O)CN(CC(N)=O)C(=O)NC`, the GI50 in the experiment with KM-20L2, in the experiment with SNB-78, in the experiment with LXFL 529, in the experiment on RXF 631, in the experiment on XF498 and in the experiment with M19-MEL was > 100 µM (inactive) in each case. For the same compound, in the experiment with DLD-1, the GI50 is > 100 µM (inactive).

With `COCCNC(=O)C1C(=O)C(=O)N(CCOC)C1=O` (stereo unspecified), the GI50 in the experiment with KM-20L2, with SNB-78, in the experiment on DMS-114, in the experiment with LXFL 529, in the experiment with RXF 631 and in the experiment with M19-MEL was > 100 µM (inactive) throughout. The GI50 with DLD-1 and with HOP-18 was > 100 µM (inactive) throughout.

Consider `O=C(O)CCSC(=O)Nc1cccc([N+](=O)[O-])c1`, for which the GI50 is > 100 µM (inactive) in the experiment with SNB-78, > 100 µM (inactive) with DMS-114, > 100 µM (inactive) in the experiment with LXFL 529 and 72.1 µM (inactive) in the experiment on DLD-1.

Regarding `O=C(CN(c1ccccc1)c1ccccc1)n1nnc2ccccc21`, the GI50 was 36.4 µM (inactive) with KM-20L2; 47.4 µM (inactive) in the experiment with SNB-78; 29.3 µM (inactive) in the experiment with DMS-114; 70.6 µM (inactive) with LXFL 529; 20.6 µM (inactive) with M19-MEL; 76.2 µM (inactive) in the experiment on DLD-1.

The record behind these values is ChEMBL document CHEMBL1201862, “PubChem BioAssay data set” (2004).
